Source: the supplement of paper PMC12463676, “Small-molecule dissolution of stress granules by redox modulation benefits ALS models” (Nature Chemical Biology, 2025)

How the values were obtained:
potassium arsenate = compound: O=[As]([O-])(O)O.[K+] [potassium arsenate]; experiment: thermal stability z-score vs DMSO; higher = more thermally stabilized by treatment; details: HeLa; arsenate concentration 1 mM
Experimental: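 Cellular thermal proteome profiling in HeLa cells treated with 1 mM arsenate for 1 h (DMSO pretreatment), heated to ten temperatures (37-66.3 °C). Soluble protein was quantified by TMT mass spectrometry relative to DMSO controls; the thermal stability score was transformed to a z-score; mean of n = 3 experiments.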

lipoamide = compound: NC(=O)CCCCC1CCSS1 [lipoamide]; experiment: as above; details: HeLa, lipoamide concentration 100 µM
Experimental: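 Cellular thermal proteome profiling in HeLa cells. Cells were treated with 100 µM lipoamide for 1 h, with or without 1 mM arsenate for a further 1 h, then heated to ten temperatures (37-66.3 °C), and soluble protein was quantified by TMT mass spectrometry relative to 0.1% DMSO controls. The thermal stability score (sum of log2 fold changes minus the abundance score) was transformed to a z-score; mean of n = 3 experiments.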

[1] = arsenate co-treatment: 1 mM arsenate 1 h
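Note: each temperature applied for 3 min, abundance score taken as mean log2 fold change at the two lowest temperatures, z-score obtained by mean subtraction and division by SD.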

UniProt Q9HB40, sequence (Q9HB40 whole entry): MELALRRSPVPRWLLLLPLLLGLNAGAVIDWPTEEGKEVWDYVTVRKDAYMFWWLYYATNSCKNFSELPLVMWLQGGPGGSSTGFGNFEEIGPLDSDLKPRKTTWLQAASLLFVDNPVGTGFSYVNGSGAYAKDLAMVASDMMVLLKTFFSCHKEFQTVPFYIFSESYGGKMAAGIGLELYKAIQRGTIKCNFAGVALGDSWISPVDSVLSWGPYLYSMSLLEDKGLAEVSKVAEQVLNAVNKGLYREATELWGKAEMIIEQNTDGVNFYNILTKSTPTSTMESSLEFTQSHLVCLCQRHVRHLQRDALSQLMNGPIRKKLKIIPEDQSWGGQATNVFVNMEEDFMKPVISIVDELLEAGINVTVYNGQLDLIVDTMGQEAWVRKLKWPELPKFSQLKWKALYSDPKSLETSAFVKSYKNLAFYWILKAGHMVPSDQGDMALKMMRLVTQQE
UniProt Q9Y6B6, sequence (Q9Y6B6 whole entry): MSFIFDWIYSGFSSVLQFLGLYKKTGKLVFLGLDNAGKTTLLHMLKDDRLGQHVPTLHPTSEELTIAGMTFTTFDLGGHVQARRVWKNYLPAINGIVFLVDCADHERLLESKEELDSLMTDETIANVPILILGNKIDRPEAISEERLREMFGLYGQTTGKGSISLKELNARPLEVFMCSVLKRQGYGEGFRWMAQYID
UniProt Q99470, sequence (Q99470 whole entry): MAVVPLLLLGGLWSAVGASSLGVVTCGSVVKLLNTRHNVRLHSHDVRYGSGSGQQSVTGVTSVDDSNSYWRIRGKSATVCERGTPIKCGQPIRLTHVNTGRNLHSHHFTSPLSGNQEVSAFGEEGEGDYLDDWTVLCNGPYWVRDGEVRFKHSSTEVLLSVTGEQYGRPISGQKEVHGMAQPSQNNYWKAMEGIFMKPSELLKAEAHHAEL
UniProt Q96BY9, sequence (Q96BY9 whole entry): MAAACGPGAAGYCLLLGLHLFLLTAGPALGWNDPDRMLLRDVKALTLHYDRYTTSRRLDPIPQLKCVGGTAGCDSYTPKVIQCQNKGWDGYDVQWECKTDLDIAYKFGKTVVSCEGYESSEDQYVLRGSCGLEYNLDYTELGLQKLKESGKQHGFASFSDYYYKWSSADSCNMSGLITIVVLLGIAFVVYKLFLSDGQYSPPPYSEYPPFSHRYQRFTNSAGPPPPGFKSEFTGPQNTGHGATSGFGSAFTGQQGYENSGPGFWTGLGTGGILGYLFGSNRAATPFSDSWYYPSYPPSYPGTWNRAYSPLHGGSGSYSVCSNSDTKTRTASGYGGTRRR
UniProt Q96KG9, sequence (Q96KG9 whole entry): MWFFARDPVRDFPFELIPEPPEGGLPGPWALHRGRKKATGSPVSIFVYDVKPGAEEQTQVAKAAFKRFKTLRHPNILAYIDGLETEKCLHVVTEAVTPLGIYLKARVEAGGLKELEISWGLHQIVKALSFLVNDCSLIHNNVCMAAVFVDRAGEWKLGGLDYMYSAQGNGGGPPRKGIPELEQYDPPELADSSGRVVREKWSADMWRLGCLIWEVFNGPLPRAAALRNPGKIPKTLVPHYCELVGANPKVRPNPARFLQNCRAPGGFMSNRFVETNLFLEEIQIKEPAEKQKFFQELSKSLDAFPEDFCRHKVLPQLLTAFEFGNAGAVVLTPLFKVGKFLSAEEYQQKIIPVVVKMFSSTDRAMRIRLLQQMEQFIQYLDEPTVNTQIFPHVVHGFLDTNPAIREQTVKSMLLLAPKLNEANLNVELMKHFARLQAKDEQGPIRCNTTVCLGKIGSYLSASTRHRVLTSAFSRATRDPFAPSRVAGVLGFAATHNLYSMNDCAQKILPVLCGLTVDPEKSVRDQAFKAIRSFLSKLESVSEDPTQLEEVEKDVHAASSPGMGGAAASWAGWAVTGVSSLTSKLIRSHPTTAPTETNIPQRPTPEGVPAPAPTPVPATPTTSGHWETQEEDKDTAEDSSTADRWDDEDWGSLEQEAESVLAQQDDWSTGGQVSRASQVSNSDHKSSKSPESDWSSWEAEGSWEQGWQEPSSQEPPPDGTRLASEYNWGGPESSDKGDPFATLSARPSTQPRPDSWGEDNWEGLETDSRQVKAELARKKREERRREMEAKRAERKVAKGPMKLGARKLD
UniProt Q99590, sequence (Q99590 whole entry): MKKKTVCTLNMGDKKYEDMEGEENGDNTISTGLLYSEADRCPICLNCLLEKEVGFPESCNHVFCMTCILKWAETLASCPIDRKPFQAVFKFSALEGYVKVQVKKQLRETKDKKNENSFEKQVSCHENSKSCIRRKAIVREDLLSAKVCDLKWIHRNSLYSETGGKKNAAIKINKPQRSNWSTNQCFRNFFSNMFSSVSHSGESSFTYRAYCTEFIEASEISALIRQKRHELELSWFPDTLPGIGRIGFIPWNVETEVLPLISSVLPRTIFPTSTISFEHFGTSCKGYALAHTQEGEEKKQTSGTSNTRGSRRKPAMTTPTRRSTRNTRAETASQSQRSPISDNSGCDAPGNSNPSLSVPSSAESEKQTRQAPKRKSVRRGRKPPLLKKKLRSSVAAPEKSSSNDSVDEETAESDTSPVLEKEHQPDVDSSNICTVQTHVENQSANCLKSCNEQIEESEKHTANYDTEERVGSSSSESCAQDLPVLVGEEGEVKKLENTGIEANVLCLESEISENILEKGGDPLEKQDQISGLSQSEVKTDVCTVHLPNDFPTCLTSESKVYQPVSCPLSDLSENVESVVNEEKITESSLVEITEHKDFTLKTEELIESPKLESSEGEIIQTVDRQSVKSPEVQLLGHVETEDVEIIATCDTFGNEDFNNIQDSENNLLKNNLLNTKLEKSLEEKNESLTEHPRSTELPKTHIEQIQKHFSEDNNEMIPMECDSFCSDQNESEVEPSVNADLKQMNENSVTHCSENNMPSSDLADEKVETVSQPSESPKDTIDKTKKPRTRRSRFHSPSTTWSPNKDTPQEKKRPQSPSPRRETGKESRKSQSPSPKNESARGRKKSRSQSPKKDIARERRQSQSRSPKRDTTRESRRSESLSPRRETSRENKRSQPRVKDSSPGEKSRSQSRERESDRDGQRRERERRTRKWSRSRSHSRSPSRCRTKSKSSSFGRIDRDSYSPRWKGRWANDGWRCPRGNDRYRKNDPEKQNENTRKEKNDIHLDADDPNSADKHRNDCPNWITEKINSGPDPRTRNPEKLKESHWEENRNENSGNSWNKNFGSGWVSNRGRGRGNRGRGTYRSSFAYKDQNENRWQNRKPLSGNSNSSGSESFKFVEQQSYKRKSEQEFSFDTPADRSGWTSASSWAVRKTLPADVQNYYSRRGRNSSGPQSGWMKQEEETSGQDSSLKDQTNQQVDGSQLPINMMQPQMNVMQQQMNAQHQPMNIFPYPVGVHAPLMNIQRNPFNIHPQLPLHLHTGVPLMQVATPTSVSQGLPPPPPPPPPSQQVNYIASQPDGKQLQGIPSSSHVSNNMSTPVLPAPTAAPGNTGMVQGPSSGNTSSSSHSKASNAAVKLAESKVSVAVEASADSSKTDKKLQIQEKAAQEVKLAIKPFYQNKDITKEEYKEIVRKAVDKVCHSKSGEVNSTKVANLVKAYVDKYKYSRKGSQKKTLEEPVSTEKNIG
UniProt Q15424, sequence (Q15424 whole entry): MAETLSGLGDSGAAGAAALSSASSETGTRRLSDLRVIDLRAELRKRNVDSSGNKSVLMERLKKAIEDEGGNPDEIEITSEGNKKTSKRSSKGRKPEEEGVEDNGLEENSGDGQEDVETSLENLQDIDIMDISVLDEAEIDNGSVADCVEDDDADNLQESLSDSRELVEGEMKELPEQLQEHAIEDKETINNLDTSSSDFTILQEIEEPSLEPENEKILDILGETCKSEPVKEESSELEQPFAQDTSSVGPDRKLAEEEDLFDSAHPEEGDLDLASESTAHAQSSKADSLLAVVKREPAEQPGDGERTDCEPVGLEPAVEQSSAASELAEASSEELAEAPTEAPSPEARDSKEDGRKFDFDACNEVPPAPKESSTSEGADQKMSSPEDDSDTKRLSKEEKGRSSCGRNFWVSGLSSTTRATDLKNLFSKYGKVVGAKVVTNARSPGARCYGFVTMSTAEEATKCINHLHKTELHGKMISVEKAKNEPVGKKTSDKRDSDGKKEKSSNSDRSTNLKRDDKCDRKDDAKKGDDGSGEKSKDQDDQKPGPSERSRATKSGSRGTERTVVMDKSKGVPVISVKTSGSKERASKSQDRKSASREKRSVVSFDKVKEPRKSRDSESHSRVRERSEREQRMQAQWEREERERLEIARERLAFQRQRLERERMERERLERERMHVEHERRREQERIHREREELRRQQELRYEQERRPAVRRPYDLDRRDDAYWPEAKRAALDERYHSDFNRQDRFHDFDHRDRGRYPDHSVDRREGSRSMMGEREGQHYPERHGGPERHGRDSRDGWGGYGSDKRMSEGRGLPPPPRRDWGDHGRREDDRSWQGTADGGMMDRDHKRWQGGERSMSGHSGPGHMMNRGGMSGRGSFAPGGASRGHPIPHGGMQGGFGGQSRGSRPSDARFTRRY
UniProt Q9UHR5, sequence (Q9UHR5 whole entry): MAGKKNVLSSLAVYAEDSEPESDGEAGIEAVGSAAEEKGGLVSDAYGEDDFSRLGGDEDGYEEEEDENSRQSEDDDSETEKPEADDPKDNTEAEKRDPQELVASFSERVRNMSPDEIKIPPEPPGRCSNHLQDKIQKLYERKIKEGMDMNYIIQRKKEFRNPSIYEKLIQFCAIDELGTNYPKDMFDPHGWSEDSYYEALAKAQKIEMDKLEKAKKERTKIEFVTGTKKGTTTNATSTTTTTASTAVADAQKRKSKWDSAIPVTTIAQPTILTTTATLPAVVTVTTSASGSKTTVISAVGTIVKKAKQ
UniProt Q969E2, sequence (Q969E2 whole entry): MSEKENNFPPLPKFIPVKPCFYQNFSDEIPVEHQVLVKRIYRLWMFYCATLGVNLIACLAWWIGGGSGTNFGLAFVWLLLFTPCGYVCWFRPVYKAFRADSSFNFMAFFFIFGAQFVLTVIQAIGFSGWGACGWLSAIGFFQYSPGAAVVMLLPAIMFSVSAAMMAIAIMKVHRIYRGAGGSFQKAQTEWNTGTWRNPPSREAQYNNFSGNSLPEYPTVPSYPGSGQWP

Target	thermal stability z-score (potassium arsenate)	thermal stability z-score (lipoamide; [1])	thermal stability z-score (lipoamide; arsenate co-treatment: none)
SAFB2 (UniProt Q14151)	-0.545	1.41	0.112
SAFB (UniProt Q15424)	0.0324	2.61	0.651
SAMD4B (UniProt Q5PRF9)	-0.143	0.14	0.116
SAMD9 (UniProt Q5K651)	-0.13	-0.0476	-0.0624
SAMHD1 (UniProt Q9Y3Z3)	0.738	-0.0165	0.3
SAMM50 (UniProt Q9Y512)	1.08	0.182	0.601
SAP18 (UniProt O00422)	0.519	0.465	0.0358
SAP30BP (UniProt Q9UHR5)	1.03	0.884	0.612
SAP130 (UniProt Q9H0E3)	-0.246	-0.208	-0.267
SAR1A (UniProt Q9NR31)	0.248	0.174	0.266
SAR1B (UniProt Q9Y6B6)	0.0901	0.0537	0.376
SARAF (UniProt Q96BY9)	0.00539	-0.355	-0.0205
SARS2 (UniProt Q9NP81)	-0.442	-0.781	-0.828
SARS (UniProt P49591)	2.1	1.63	1.23
SART1 (UniProt O43290)	-2.05	0.898	0.374
SART3 (UniProt Q15020)	-1.04	-0.326	0.203
SASS6 (UniProt Q6UVJ0)	-0.481	-0.579	-0.207
SAT2 (UniProt Q96F10)	0.614	0.538	0.492
SBDS (UniProt Q9Y3A5)	0.306	0.328	0.706
SBF1 (UniProt O95248)	-0.338	-0.316	0.227
SBF2 (UniProt Q86WG5)	-0.179	-0.149	-0.0174
SBNO1 (UniProt A3KN83)	0.146	0.158	0.686
SCAF4 (UniProt O95104)	0.0697	0.0769	0.184
SCAF8 (UniProt Q9UPN6)	0.155	-0.0718	-0.03
SCAF11 (UniProt Q99590)	-1.02	1.24	0.982
SCAMP1 (UniProt O15126)	0.0619	0.621	0.765
SCAMP2 (UniProt O15127)	-1.4	0.21	-0.804
SCAMP3 (UniProt O14828)	-0.277	0.525	0.319

Target	thermal stability z-score (potassium arsenate)	thermal stability z-score (lipoamide; [1])	thermal stability z-score (lipoamide; arsenate co-treatment: none)
SCAMP4 (UniProt Q969E2)	0.0173	0.196	0.377
SCAP (UniProt Q12770)	-0.473	-1.13	0.0662
SCARB1 (UniProt Q8WTV0)	0.58	0.0511	0.144
SCARB2 (UniProt Q14108)	0.368	0.111	0.346
SCCPDH (UniProt Q8NBX0)	0.139	0.163	0.0672
SCD (UniProt O00767)	1.66	-1.45	-2.34
SCFD1 (UniProt Q8WVM8)	0.224	-0.771	-0.32
SCFD2 (UniProt Q8WU76)	0.043	0.0156	-0.09
SCLY (UniProt Q96I15)	-0.415	0.111	0.27
SCML2 (UniProt Q9UQR0)	-0.22	-0.0267	-0.0968
SCNM1 (UniProt Q9BWG6)	0.418	-0.00102	0.278
SCO1 (UniProt O75880)	3.03	-2.79	-2.65
SCO2 (UniProt O43819)	0.538	-0.169	0.0623
SCP2 (UniProt P22307)	-0.257	0.374	0.0992
SCPEP1 (UniProt Q9HB40)	-0.196	-0.372	0.187
SCRIB	0.128	-0.00971	-0.22
SCRN2 (UniProt Q96FV2)	-0.185	0.553	-0.0583
SCRN3 (UniProt Q0VDG4)	-0.0506	-0.445	-0.169
SCYL1 (UniProt Q96KG9)	-0.278	-0.269	-0.198
SCYL2 (UniProt Q6P3W7)	-0.414	-0.369	-0.657
SCYL3 (UniProt Q8IZE3)	-0.314	-0.406	-0.146
SDAD1 (UniProt Q9NVU7)	-0.469	0.0663	-0.0856
SDCBP (UniProt O00560)	0.364	0.541	0.425
SDE2 (UniProt Q6IQ49)	-1.16	-0.399	-0.282
SDF2 (UniProt Q99470)	0.21	-3.1	-2.94
SDF2L1 (UniProt Q9HCN8)	0.265	-2.27	-1.73
SDF4 (UniProt Q9BRK5)	0.389	-1.8	-1.61
